The subject of data set [1] is Pseudomonas Aeruginosa. Kind of data set: Aerobic Culture and Mic from ear swab.
In data set [2] the test system is Kennel cough, Giardia and Isospora infections. In words: Treatment of Kennel cough, Giardia and Isospora infections in a dog.
The test system of data set [3] is Rhodococcus equi. In words: Antibiotic sensitivity testing of the foal's bacterial culture. The format is cell-based.
For data set [4] the following is noted: cited from earlier work.
For data set [5], the system named is respiratory infection. In words: Treatment of therapy resistant respiratory infection in a cat. The format is in vivo. The conditions noted are these: clavamox oral, five days later convenia injections. The procedure:
A two year old domestic short hair cat, six pounds, body weight, temp 102° F. emaciated cat came from a cat holding facility and was FIV and FELV negative. Its clinical symptoms: very severe wheezing respiration, very moist cough, frequent sneezing all day beginning 10 days previously. The cat had been treated in another hospital previously with antibiotics: first, clavamox oral/contains amoxicillin and with β-lactamase-inhibiting effect clavulanic acid known as for powerful, broad-spectrum antimicrobial activity. […] CBC chemistry blood work was performed. The only abnormality was a 40% increase in Monocytes above the highest normal, and mild anemia.

Data set [6] concerns herpes simplex labialis. Kind of data set: Treatment of herpes simplex labialis. It is filed as in vivo, human. The text has this:
A volunteer, 54 kg suffered from recurring herpes outbreaks on the lip. The outbreaks happened about every two years and were associated with immune compromised conditions like stress, concurrent upper respiratory infection and menstrual cycles. The outbreaks last approximately 7-9 days and no spontaneous remission of an outbreak had occurred.
The outbreaks always followed a predictable progression and included a tingling sensation, redness and swelling of about 5 mm area on upper right side middle of the lip and 2-4 days after the onset blisters appear that turns into a scab that last about 5 days. The only medicine that could slightly alter this course was Zovirax crema/acyclovir/if the treatment began at the first sign of an outbreak. No other medicine had any effect on alleviating symptoms. With the treatment of Zovirax the blister size smaller (about 4 mm in diameter) and the duration of the outbreak was shorter (to approximately 5 days).
Topical and oral cyanogenic composition medications were applied simultaneously with no other medication.

For data set [7] the following is noted: known substances; cited from earlier work.
Data set [8] deals with Candida albicans. In words: Treatment of recurring Candida albicans vaginal yeast infection. The format is in vivo, human. The text has this: A volunteer 57 kg body weight with frequent recurring vaginal Candida albicans infection was diagnosed and treated by their gynecologist over a period of 15 years. The reccurrence frequency was 2-3 flare ups every year for the past 15 years. […] However, 3-6 months later the infection would again appear. Chlorhexidine wash was also tried to prevent recurrence to no effect.
No flare-up has been detected for at least three years. No other treatment was used since there had been no recurrence.

Data set [9] in a line: Treatment of chronic suppurative prostatitis / prostate abscess in a dog. The conditions noted are these: in vivo. The procedure: An eight year old Akita dog presented suffering from chronic, recurring prostatitis with typical clinical symptoms associated with the condition. […] This condition had worsened in the previous eight months, causing significant suffering by the pet and frustration to the dog's owner.
In the second week the dose was adjusted to 5 mg/kg inj. twice/day. […] The treatment continued in the 3rd week with 2 mg/bw kg dose twice/day.

For data set [10], the system named is bacterial pneumonia. In words: Treatment of bacterial pneumonia in a cat. It is filed as in vivo. The conditions noted are these: before the cyanogenic composition.

Consider 23 compounds from US10723751B2 (priority 2013, dated 2020).

Where two headings read alike, the source gives them in different places.

For orientation: MIC means the lowest concentration found to suppress growth. For gentamicin, the sensitive / resistant entry in data set [1] (ear swab isolate) was “S”. Moreover, the MIC entry in data set [1] (ear swab isolate, heavy growth) was “<= 2 ug/ml”. On to `CO/N=C(\C(=O)N[C@@H]1C(=O)N2C(C(=O)O)=C(CSC(=O)c3ccco3)CS[C@H]12)c1csc(N)n1` [ceftiofur], for which the MIC in data set [1] (Pseudomonas aeruginosa) is at least 8 µg/mL. Further, the sensitive / resistant result in data set [1] (ear swab isolate) was “R”. On to `CC[C@H]1OC(=O)[C@H](C)[C@@H](O[C@H]2C[C@@](C)(OC)[C@@H](O)[C@H](C)O2)[C@H](C)[C@@H](O[C@@H]2O[C@H](C)C[C@H](N(C)C)[C@H]2O)[C@](C)(O)C[C@@H](C)CN(C)[C@H](C)[C@@H](O)[C@]1(C)O` [Azithromycin], for which the “outcome of previous treatment” value in data set [2] (Azithromycin and Clavamox at therapeutic dose, about 2 weeks) was “the symptoms did not abate”.

On to `CC[C@H]1OC(=O)[C@H](C)[C@@H](O[C@H]2C[C@@](C)(OC)[C@@H](O)[C@H](C)O2)[C@H](C)[C@@H](O[C@@H]2O[C@H](C)C[C@H](N(C)C)[C@H]2O)[C@](C)(O)C[C@@H](C)C(=O)[C@H](C)[C@@H](O)[C@]1(C)O` [erythromycin], for which the antibiotic sensitivity result in [3] is given as “resistance”.

Regarding `COCC1=C(C(=O)O)N2C(=O)[C@@H](NC(=O)/C(=N\OC)c3csc(N)n3)[C@H]2SC1` [cefpodoxime], the MIC in [1] (Pseudomonas aeruginosa) was at least 8 µg/mL. For the same compound, the sensitive / resistant entry in data set [1] (ear swab isolate) is recorded as “R”. As for `CO/N=C(/C(=O)N[C@@H]1C(=O)N2C(C(=O)O)=C([C@@H]3CCCO3)CS[C@H]12)c1csc(N)n1` [cefovecin], in data set [1] (ear swab isolate), the sensitive / resistant result is recorded as “R”. Consider `CN1CCN(c2c(F)cc3c(=O)c(C(=O)O)cn4c3c2OCN4C)CC1` [marbofloxacin], for which the MIC in data set [1] (Pseudomonas aeruginosa) was at most 1 µg/mL. The sensitive / resistant result in data set [1] (ear swab isolate) is recorded as “S”. On to `CC1=C(C(=O)O)N2C(=O)[C@@H](NC(=O)[C@H](N)c3ccccc3)[C@H]2SC1` [cephalexin], for which, in [1] (ear swab isolate), the sensitive / resistant result is on record as “R”. As to `CC1=C(C(=O)O)N2C(=O)[C@@H](NC(=O)[C@H](N)c3ccc(O)cc3)[C@H]2SC1` [cephadroxil], the sensitive / resistant result in [1] (ear swab isolate) is recorded as “R”. As usually defined, the LD50 is the dose at which mortality reaches 50%. Regarding `N#C[C@H](O[C@@H]1O[C@H](CO[C@@H]2O[C@H](CO)[C@@H](O)[C@H](O)[C@H]2O)[C@@H](O)[C@H](O)[C@H]1O)c1ccccc1` [amygdalin], the LD50 result in [4] (literature) was “about 900 mg/body weight kg”. In data set [4] (oral, scientific literature), the “LD 50 of oral amygdalin” value is 400 to 900 mg/kg.

Regarding `CC1(C)S[C@@H]2[C@H](NC(=O)[C@H](N)c3ccccc3)C(=O)N2[C@H]1C(=O)O` [ampicillin], the sensitive / resistant entry in data set [1] (ear swab isolate) is on record as “R”.

Regarding `CO/N=C(/C(=O)N[C@@H]1C(=O)N2C(C(=O)[O-])=C([C@@H]3CCCO3)CS[C@H]12)c1csc(N)n1.[Na+]` [convenia], the “outcome of previous antibiotic treatment” value in data set [5] is “the condition continued to worsen”.

In the case of `CO[C@@]1(NC(=O)Cc2cccs2)C(=O)N2C(C(=O)O)=C(COC(N)=O)CS[C@@H]21` [cefoxitin], the minimum inhibitory concentration (MIC) in data set [1] (Pseudomonas aeruginosa) was at least 32 µg/mL. The sensitive / resistant result in data set [1] (ear swab isolate) is given as “R”. As to `Nc1nc2c(ncn2COCCO)c(=O)[nH]1` [Zovirax, acyclovir], the “blister size in diameter” value in data set [6] (treatment begun at first sign of an outbreak) is recorded as “about 4 mm”. In addition, the “duration of the outbreak” value in data set [6] (untreated approximately 7-9 days) is listed as “about 5 days”. `[Cl-].[Na+]` [Table salt]: in [7], the 50% lethal dose (LD50) is 300 mg/kg. In the case of `Clc1ccccc1C(c1ccccc1)(c1ccccc1)n1ccnc1` [lotrimazole], the “outcome of previous treatment” value in data set [8] (oral capsule and cream 5-7 days, infection again after 3-6 months) is given as “good symptomatic response”. The compound `CCN1CCN(c2cc3c(cc2F)c(=O)c(C(=O)O)cn3C2CC2)CC1` [enrofloxacin] yielded an MIC in [1] (Pseudomonas aeruginosa) of at most 0.5 µg/mL. In data set [1] (ear swab isolate), the sensitive / resistant entry is recorded as “S”. In [9], the “outcome of previous antibiotic treatment” value is “only temporary mild improvement, followed by a quick relapse”. The “outcome of previous treatment” value in data set [2] (switched to Enrofloxacin, Clavomox continued) is given as “the symptoms continued to worsen”. Regarding `CC(=O)Oc1ccccc1C(=O)O` [aspirin], the 50% lethal dose (LD50) in data set [7] is 200 to 1200 mg/kg. For `[H]/N=C(\N/C(=N/[H])NCCCCCCNC(=N)NC(=N)Nc1ccc(Cl)cc1)Nc1ccc(Cl)cc1` [Chlorhexidine wash, Chlorhexidine], in data set [8] (in vivo), the prevention of recurrence entry is recorded as “no effect”. Turning to `Cc1nnc(SCC2=C(C(=O)O)N3C(=O)[C@@H](NC(=O)Cn4cnnn4)[C@H]3SC2)s1` [cefazolin], the sensitive / resistant result in data set [1] (ear swab isolate) was “R”. `NCC[C@H](O)C(=O)N[C@@H]1C[C@H](N)[C@@H](O[C@H]2O[C@H](CN)[C@@H](O)[C@H](O)[C@H]2O)[C@H](O)[C@H]1O[C@H]1O[C@H](CO)[C@@H](O)[C@H](N)[C@H]1O` [amikacin]: the minimal inhibitory concentration (MIC) in [1] (Pseudomonas aeruginosa) was at most 8 µg/mL. Besides, the sensitive / resistant result in data set [1] (ear swab isolate) is given as “S”. Consider `CC1(C)S[C@@H]2[C@H](NC(=O)[C@H](N)c3ccc(O)cc3)C(=O)N2[C@H]1C(=O)O` [amoxicillin], for which, in [1] (ear swab isolate), the sensitive / resistant result was “R”. Moreover, the “outcome of previous treatment” value in data set [10] is “slight improvement followed by a relapse”.

With `CO[C@H]1/C=C/O[C@@]2(C)Oc3c(C)c(O)c4c(O)c(c(/C=N/N5CCN(C)CC5)c(O)c4c3C2=O)NC(=O)/C(C)=C\C=C\[C@H](C)[C@H](O)[C@@H](C)[C@@H](O)[C@@H](C)[C@H](OC(C)=O)[C@@H]1C` [rifampin], in [3], the antibiotic sensitivity entry is given as “resistance”.
